Article PMC10587869, “Deciphering Structural Determinants Distinguishing Active from Inactive Cell-Penetrating Peptides for Cytosolic mRNA Delivery” (Bioconjugate Chemistry, 2023)
Positions of bridges follow the written chain, without caps; N, C: chain ends. Non-standard residues stand in square brackets, D forms with d. Residues, ends and D or L forms follow the SMILES beside them. No end group written: not given here. *: point of attachment. Stearoyl = CCCCCCCCCCCCCCCCCC(=O)*; Orn = NCCC[C@H](N)C(=O)O

Legend:
[1] = Heparin-mediated polyplex decomplexation assay (QuantiFluor RNA); assay type: physicochemical; settings: for stability of polyplexes against heparin-induced decomplexation: N/P 5, TE buffer pH 7.5, 37 °C 90 min, released mRNA by QuantiFluor RNA dye, Figure 7
Description: For testing the stability of mRNA polyplexes, a polyanion decomplexation assay, mediated by the polyanionic heparin (heparin sodium salt from porcine intestinal mucosa, Cat. No. H3149-100 KU, Sigma-Aldrich) was performed. mRNA polyplexes were freshly prepared with uncapped SecNLuc mRNA (RIBOPRO), as described in the section mRNA Nanoparticle Formation. Following polyplex formation, all samples were incubated for at least 30 min at room temperature. Importantly, separate stock solutions of heparin were made to ensure an equal volume across conditions regardless of heparin concentration. For decomplexation, 5 μL of 10× polyplexes were diluted in RNase-free TE-buffer at pH 7.5 (Promega, Cat. No. E260A) supplemented with an equal volume of heparin across conditions to a total volume of 50 μL in a 384-well plate (Greiner Bio-One, Cat. No. 781101). All samples were quickly spun down before incubation at 37 °C for 90 min. The QuantiFluor RNA System (Promega, Cat. No. E3310) was used with a 1:2000 dilution of RNA-binding dye for all tested conditions to detect released mRNA. For quantification, a calibration curve with uncapped SecNLuc mRNA was made, spanning from 0.19 ng mRNA/well to 50 ng mRNA/well. For detection of released mRNA, the dye was excited at 485 nm, and emission was collected at 535 nm using the VICTOR X3Multilabel Plate Reader (PerkinElmer)
Data analysis was performed using GraphPad Prism (GraphPad Software, version 8.4.2, San Diego, CA, USA). Data are presented as means ± standard deviation (SD) unless stated otherwise. Means were calculated by first averaging the technical replicates, for which outliers were identified using Grubbs’ test, followed by averaging the biological replicates. Before statistical analysis, all data were checked for normal distribution with a Shapiro–Wilk test. Statistical analysis was done using one- or two-way analysis of variance (ANOVA). Multiple comparisons were corrected using Tukey’s test with 95% confidence intervals. For the mRNA standard curve used in heparin decomplexation assays, the coefficient of variation was determined both in the standards and in samples and was ≤20%. The standard curve was fitted using a sigmoidal four-parameter logistic curve. The standard curve was back fitted with ±10% accuracy to verify the correctness of the fit. The signals from samples were blanked with the appropriate solution (TE buffer) before calculating interpolations. p > 0.05 was considered not significant, and p values were reported using the GraphPad Prism style (*p ≤ 0.05, **p ≤ 0.01, ***p ≤ 0.001, and ****p ≤ 0.0001).

HeLa cells = test: Resazurin assay of metabolic activity after mRNA transfection; assay type: cell-based, human; settings: normalized to untreated
Description: (§1) One day before mRNA transfections, 10 000 MC3T3 cells in 100 μL were seeded in 96-well plates (Greiner Bio-One Cat. No. 655180) or 20 000 cells in 200 μL in μ-slide eight-well chambers (Ibidi, Gräfelfing, Germany). These seeding densities ensured confluency between ∼70 and 90% on the day of transfection. mRNA transfections were performed by removing the complete medium from the wells and replacing it with mRNA nanoparticles diluted 10 times in complete medium. Cells were exposed to mRNA nanoparticles for 2 h at 37 °C, 5% CO2, in a humidified incubator. For some experiments, cells were stained with 200 μL of 1 μM CellTrace yellow (Thermo Fisher Scientific, Cat. No. C34567) directly after the nanoparticle incubation, according to the manufacturer’s instructions. Regardless of the tested N/P ratio or type of nanoparticle, mRNA inputs were equalized across conditions, resulting in 107 ng/well for luciferase assays in 96-well plate formats and 214 ng/well for confocal microscopy experiments. […] For untreated controls, complete cell culture medium was added and refreshed as often as in the experimental conditions.
(§2) The resazurin-based assay was performed essentially as described previously.[61],[62] In brief, the effect of different peptide-mRNA complexes on the metabolic activity of cells was measured 24 h post-transfection. Resazurin sodium salt (Sigma-Aldrich, Cat No. R7017) was dissolved in PBS and diluted 100 times to a final concentration of 100 μg/mL in complete medium. After 2 h of incubation with cells at 37 °C, fluorescence was measured using the VICTOR X3Multilabel Plate Reader (PerkinElmer, Waltham, MA, USA). After briefly shaking the plate, resazurin was excited at 485 nm, and emission was collected from 570 to 620 nm. All samples were blanked by the average signal of cell-free wells. Blanked data were normalized to untreated conditions per cell type.

MC3T3 cells [2] = test: as above; assay type: cell-based, murine; design: concentration or dose not given beside the values; settings: normalized to untreated
Description: as §1, §2

MC3T3 cells [3] = test: Cellular uptake of Cy5-eGFP mRNA polyplexes, live-cell confocal microscopy; assay type: cell-based, murine; settings: for effect of oligomerization on uptake: Cy5-labeled mRNA, polymerized vs monomeric, Figure 5, Figure S5; for ratio of Poly hLF-x vs Mono-hLF-x, Corrected Total Cellular Fluorescence (Cy5): Cy5-eGFP mRNA polyplexes, 2 h post-transfection, n = 5 fields of view per condition
Description: Peptide-mRNA polyplexes were formulated as previously described.[40],[41] In short, two separate stock solutions of mRNA and peptide were prepared in MQ and simultaneously dispensed with electronically dispensing pipettes (E4 Electronic Pipette, LTS E4-100XLS+, Mettler-Toledo Rainin, LLC, Oakland, CA, USA) at a flow rate of 11 mL min^–1. All polyplexes were formed at a concentration of at least 10-fold the final intended concentration for transfections.
as §1
Before microscopy, complete medium containing phenol red was replaced with an equal volume of phenol red-free and HEPES-formulated Opti-MEM (Gibco). The uptake of Cy5-eGFP mRNA-formulated nanoparticles was assessed 2 h post-transfection, and eGFP expression was assessed 24 h post-transfection. Live-cell imaging was performed using a Leica TCS SP8 SMD (Leica Microsystems, Mannheim, Germany) with an HC PL APO CS2 63×/1.20 water objective and a temperature-controlled stage at 36.5 °C. eGFP was excited at 488 nm (emission: 500–550 nm). CellTrace yellow was excited at 555 nm (emission: 570–620 nm), and Cy5 was excited at 633 nm (emission: 650–690 nm). All laser lines were generated by a white-light laser, and emissions were detected with hybrid detectors. All channels were sequentially acquired to avoid crosstalk at a bit depth of 12. Except for the LMM eGFP conditions (reduced gain), equal acquisition settings (pixel size, pinhole, laser power, and gain) per fluorophore were used within the experiments.
Quantification of the Cy5 fluorescence was performed as previously described.[59],[60] In brief, five separate images (unless stated otherwise) containing approximately 10 cells per image were analyzed using ImageJ (version 1.53f51). A square mask of 184.52 μm^2 was used to quantify the raw integrated density (sum of all pixels in a region of interest). Importantly, cell confluencies ranged from ∼80–95%, ensuring minimal impact of cell density on total fluorescence values. The brightness and contrast of the images were adjusted to find a cell-free region to determine background fluorescence. Then, a circle was drawn to measure the background fluorescence. To obtain the corrected total cellular fluorescence (CTCF), the area (in pixels) was multiplied by the mean gray value of the background and subsequently subtracted from the raw integrated density.

[4] = N/P 5, resazurin 24 h post-transfection
[5] = MC3T3, N/P 3, resazurin 24 h post-transfection
[6] = MC3T3, N/P 5, resazurin 24 h post-transfection

CC[C@H](C)[C@H](NC(=O)[C@@H]1CSSC[C@H](NC(=O)[C@H](CCCCN)NC(C)=O)C(=O)N[C@@H](Cc2ccccc2)C(=O)N[C@@H](CCC(N)=O)C(=O)N[C@@H](Cc2c[nH]c3ccccc23)C(=O)N[C@@H](CCC(N)=O)C(=O)N[C@@H](CCCNC(=N)N)C(=O)N[C@@H](CC(N)=O)C(=O)N[C@@H](CCSC)C(=O)N[C@@H](CCCNC(=N)N)C(=O)N[C@@H](CCCCN)C(=O)N[C@@H](C(C)C)C(=O)N[C@@H](CCCNC(=N)N)C(=O)NCC(=O)N2CCC[C@H]2C(=O)N2CCC[C@H]2C(=O)N[C@@H](C(C)C)C(=O)N[C@@H](CO)C(=O)N1)C(=O)N[C@@H](CCCCN)C(=O)N[C@@H](CCCNC(=N)N)C(N)=O [Mono-hLF-WT] (Ac-KCFQWQRNMRKVRGPPVSCIKR-NH2; disulfide 2-19)
stability of polyplexes against heparin-induced decomplexation [1]: significantly lower stability of these polyplexes compared to PF14, except for the highest heparin dose | relative metabolic activity (HeLa cells; [4]): 83% | relative metabolic activity (MC3T3 cells [2]; [5]): 125%

CC(C)C[C@@H]1NC(=O)[C@H](C)NC(=O)[C@H](CCCN)NC(=O)[C@H](C(C)C)NC(=O)[C@H](CCCN)NC(=O)[C@H](CCCN)NC(=O)[C@H](CC(C)C)NC(=O)[C@H](CC(N)=O)NC(=O)[C@H](CCCN)NC(=O)[C@H](CC(C)C)NC(=O)[C@H](Cc2c[nH]c3ccccc23)NC(=O)[C@H](CCC(N)=O)NC(=O)[C@H](Cc2ccccc2)NC(=O)[C@@H](NC(=O)[C@@H](N)CCCN)CSSC[C@@H](C(=O)N[C@@H](CC(C)C)C(=O)N[C@@H](CCCN)C(=O)N[C@@H](CCCN)C(N)=O)NC(=O)[C@H](CO)NC(=O)[C@H](C(C)C)NC(=O)[C@H](CC(C)C)NC1=O [Mono-hLF-v3] (H-[Orn]CFQWL[Orn]NL[Orn][Orn]V[Orn]ALLVSCL[Orn][Orn]-NH2; disulfide 2-19)
relative metabolic activity (MC3T3 cells [2]; [5]): 125%

CCCCCCCCCCCCCCCCCC(=O)N[C@@H](C)C(=O)NCC(=O)N[C@@H](Cc1ccc(O)cc1)C(=O)N[C@@H](CC(C)C)C(=O)N[C@@H](CC(C)C)C(=O)NCC(=O)N[C@@H](CCCCN)C(=O)N[C@@H](CC(C)C)C(=O)N[C@@H](CC(C)C)C(=O)N[C@@H](CCCN)C(=O)N[C@@H](CCCN)C(=O)N[C@@H](CC(C)C)C(=O)N[C@@H](C)C(=O)N[C@@H](C)C(=O)N[C@@H](C)C(=O)N[C@@H](C)C(=O)N[C@@H](CC(C)C)C(=O)N[C@@H](CCCN)C(=O)N[C@@H](CCCN)C(=O)N[C@@H](CC(C)C)C(=O)N[C@@H](CC(C)C)C(N)=O [PF14, reference compound] (Stearoyl-AGYLLGKLL[Orn][Orn]LAAAAL[Orn][Orn]LL-NH2)
stability against heparin decomplexation ([1]; N/P 7, low heparin dose, Figure S8): least stable | relative metabolic activity (HeLa cells; N/P 3, resazurin 24 h post-transfection): 72% | relative metabolic activity (HeLa cells; [4]): 13% | relative metabolic activity (MC3T3 cells [2]; [6]): 64%

CC(C)C[C@@H]1NC(=O)[C@H](C)NC(=O)[C@H](CCCCN)NC(=O)[C@H](C(C)C)NC(=O)[C@H](CCCCN)NC(=O)[C@H](CCCCN)NC(=O)[C@H](CC(C)C)NC(=O)[C@H](CC(N)=O)NC(=O)[C@H](CCCCN)NC(=O)[C@H](CC(C)C)NC(=O)[C@H](Cc2c[nH]c3ccccc23)NC(=O)[C@H](CCC(N)=O)NC(=O)[C@H](Cc2ccccc2)NC(=O)[C@@H](NC(=O)[C@@H](N)CCCCN)CSSC[C@@H](C(=O)N[C@@H](CC(C)C)C(=O)N[C@@H](CCCCN)C(=O)N[C@@H](CCCCN)C(N)=O)NC(=O)[C@H](CO)NC(=O)[C@H](C(C)C)NC(=O)[C@H](CC(C)C)NC1=O [mono-hLF-v2] (H-KCFQWLKNLKKVKALLVSCLKK-NH2; disulfide 2-19)
relative metabolic activity (MC3T3 cells [2]; [6]): ~125%

KCFQWLKNLKKVKALLVSCLKK [hLF-v2, lysine-substituted amphipathic hLF variant]
effect of oligomerization on uptake (MC3T3 cells [3]; 2 h incubation): pronounced increase in uptake

KCFQWQRNMRKVRGPPVSCIKR (disulfide 2-19 (inferred)) [Poly hLF-WT, hLF-WT oligomerized through intermolecular disulfide bonds]
stability of polyplexes against heparin-induced decomplexation [1]: significantly lower release of mRNA

OCFQWLONLOOVOALLVSCLOO (disulfide) [poly hLF-v3, polymeric hLF-v3]
uptake of Cy5-labeled mRNA polyplexes of amphipathic hLF variants (MC3T3 cells [3]; 2 h incubation, live-cell confocal microscopy, serum present, Figure 5, four independent experiments): comparable to the one of PF14 | relative metabolic activity (MC3T3 cells [2]; [6]): ~125%

OCFQWLONLOOVOALLVSCLOO [hLF-v3, ornithine-substituted amphipathic hLF variant]
effect of oligomerization on uptake (MC3T3 cells [3]; 2 h incubation): pronounced increase in uptake

OCFQWQHNMOHVHGPPVSCIOH [hLF-His&Orn, hLF analog with positively charged residues replaced by histidines and ornithines]
ratio of Poly hLF-x vs Mono-hLF-x, Corrected Total Cellular Fluorescence (Cy5) (MC3T3 cells [3]): 2.42 x

OCFQWQONMOOVOGPPVSCIOO (disulfide) [poly-hLF-Orn, hLF-Orn oligomerized through intermolecular disulfide bonds]
difference in heparin decomplexation ([1]; N/P 1 and 3, low or high heparin amounts, Figure S8): no difference

OCFQWQONMOOVOGPPVSCIOO [hLF-Orn, hLF analog with positively charged residues replaced by ornithines]
ratio of Poly hLF-x vs Mono-hLF-x, Corrected Total Cellular Fluorescence (Cy5) (MC3T3 cells [3]): 1.19 x
